Entries after “also recorded” stand apart in the source; their conditions may differ.
Experiments:
[1] = biological target: T1, CK2 holoenzyme (CK2 α2β2) (Homo sapiens, UniProt P67870+P68400); assay: Phosphorylation of CFTR C-terminal peptides by CK2 holoenzyme (33P incorporation); assay type: biochemical; conditions: pH 7.5, 50 µM [γ-33P]ATP, 10 min, 37°C; for Kprime / Khalf / Vmax: Figure 3C, allosteric (sigmoidal) model, GraphPad Prism; for Kprime: Kprime = Khalf^h, not equal to Km unless h = 1; for phosphorylation by CK2 holoenzyme: Tricine-SDS-PAGE, autoradiography, Figures 2A and 3
T1 construct: made in house; host or cells: Escherichia coli
T1 sequence (P68400 whole entry): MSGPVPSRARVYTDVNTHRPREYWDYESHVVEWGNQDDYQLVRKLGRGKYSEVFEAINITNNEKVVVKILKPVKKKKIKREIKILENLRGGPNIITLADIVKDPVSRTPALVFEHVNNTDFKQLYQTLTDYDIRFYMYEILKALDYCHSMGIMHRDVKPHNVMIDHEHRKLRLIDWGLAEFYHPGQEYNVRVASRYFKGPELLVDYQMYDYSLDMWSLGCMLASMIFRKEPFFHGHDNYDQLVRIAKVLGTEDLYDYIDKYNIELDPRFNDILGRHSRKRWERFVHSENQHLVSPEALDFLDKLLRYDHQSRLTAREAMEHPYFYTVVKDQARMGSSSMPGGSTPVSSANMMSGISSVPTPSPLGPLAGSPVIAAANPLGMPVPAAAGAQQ
T1 sequence (P67870 whole entry): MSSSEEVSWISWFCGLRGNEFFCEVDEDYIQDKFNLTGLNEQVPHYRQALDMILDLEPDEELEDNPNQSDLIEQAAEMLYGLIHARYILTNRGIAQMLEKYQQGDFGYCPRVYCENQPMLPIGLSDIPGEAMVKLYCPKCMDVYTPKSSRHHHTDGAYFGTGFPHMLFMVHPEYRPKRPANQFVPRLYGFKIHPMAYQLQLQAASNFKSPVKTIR
Protocol: (§1) Human CK2, both the α-catalytic subunit and the α2β2-holoenzyme were expressed in Escherichia coli. CK2α2β2 holoenzyme was reconstituted by mixing pellets expressing CK2α and CK2β independently. Cells were lysed by French press at 4°C in Tris/HCl 25 mM, pH 8, NaCl 0.4 M, DTT 1 mM, proteases inhibitors cocktail (Roche). The soluble fraction obtained after 30 min centrifugation at 15000 g was applied on Heparin-Sepharose and the proteins were separated using a gradient elution (0.4–1 M NaCl). Fractions containing CK2 were further purified by size-exclusion chromatography using a buffer composed by Tris/HCl 25 mM, pH 8, NaCl 0.5 M, DTT 1 mM.
(§2) Recombinant mouse full length CFTR (mCFTR) was cloned, expressed and purified as described in [20]. A 42-mer peptide reproducing the C-terminal tail of human CFTR (residues 1439–1480) was expressed in Escherichia coli with an N-terminal His tag and purified using affinity chromatography (Talon) followed by cleavage of the His tag by thrombin. Further details are given in the Material S1.
Synthetic peptide encompassing the last 20 residues of human CFTR C-terminal domain ([…], residues 1461–1480) was obtained by solid phase peptide synthesis method using a multiple peptide synthesizer (SyroII, MultiSynTech GmbH) on p-Benzyloxybenzyl alcohol resin (100–200 mesh) HMP resin (Novabiochem). The fluoren-9-ylmethoxycarbonyl (Fmoc) strategy was used throughout the peptide chain assembly, utilizing O-(7-Azabenzotriazol-1-yl)-N,N,N′,N′-tetramethyluronium hexafluorophosphate (HATU) as coupling reagent. The side-chain protected amino acid building blocks used were: N-α-Fmoc-Nω-(2,2,4,6,7-pentamethyldihydrobenzofuran-5-sulfonyl)-L-arginine, N-α-Fmoc-γ-tert-butyl-L-glutamic acid, N-α-Fmoc-β-tert-butyl-L-aspartic acid, N-α-Fmoc-O-tert-butyl-L-threonine, N-α-Fmoc-Nε-(tert-butyloxycarbonyl)-L-lysine, N-α-Fmoc-N-γ-trityl-L-glutamine. Cleavage of the peptide was performed by reacting the peptidyl-resin with a mixture containing TFA/ethanedithiol/phenol 5% for 2.5 h. Crude peptide were purified by a preparative reverse phase HPLC. Molecular mass of the peptide were confirmed by mass spectroscopy on a MALDI TOF-TOF mass spectrometer (model 4800– AB Sciex). The purity (>90%) was evaluated by analytical reverse phase HPLC.
(§3) Peptides derived from human CFTR C-terminal region were phosphorylated by incubation in a 20-µl volume containing 50 mM Tris/HCl, pH 7.5, 10 mM MgCl2, 100 mM NaCl, and 50 µM [γ-^33P]ATP (specific radioactivity 1,500–2,000 cpm/pmol). The reaction was started by the addition of the indicated protein kinases. The reaction mixtures were incubated for 10 minutes at 37°C and stopped by the addition of 2× concentrated Tricine sample buffer (450 mM Tris HCl, pH 8.45, 12% (v/v) glycerol, 4% (w/v) SDS, 0.0025% (w/v) Coomassie Blue G, 0.0025% (w/v) Phenol Red and 105 mM DTT). Samples were separated on Tricine-SDS-PAGE following the Schägger’s protocol in a running buffer composed of 100 mM Tris/HCl, pH 8.3, 100 mM Tricine, 0.1% (w/v) SDS. ^33P incorporation was evaluated by gels autoradiography on PerkinElmer’s Cyclone Plus Storage Phosphor System. Initial rate data were analyzed with the program Prism (GraphPad Software, La Jolla, CA).

[2] = tested on: WT, WT/T1471A or Phe508delCFTR; assay: CFTR bands B and C in BHK cells exposed to CHX or Brefeldin A; assay type: cell-based, human
Protocol: Baby hamster kidney cells (BHK) stably expressing human CFTR (hCFTR) either wild type (WT), or Phe508del, or WT T1471A were growth to reach 70–80% confluency. After 2 h-long treatment with 100 µg/mL cyclohexamide, cells were washed with PBS and incubated with 2 µM CX4945 or its vehicle for the indicated time. At each time-point cells were washed with ice-cold PBS, scraped from the plates, pelleted by centrifugation (1200 g for 5 min at room tempertaure) and lysed in a buffer containing 1% (v/v) Nonidet P40, 50 mM Tris/HCl (pH 7.5) and 150 mM NaCl with fresh protease inhibitor tablets (Roche), 1 µM Okadaic acid (Alexis) and phosphatases inhibitors cocktails 2 and 3 (Sigma). Cells were lysed by incubation on ice for 30 min and then the lysates were cleared by centrifugation at 17000 g for 30 min at 4°C. The supernatant was collected and subjected to protein concentration quantification.
Western blot analysis was performed as described in [14] using a modified Laemmli buffer containing 105 mM dithiothreitol (final concentration) to enhance the solubilization of CFTR. 20–30 µg of total proteins were separated on 4–12% precast NuPage® Bis-Tris gradient gels (Invitrogen) according to the manufacturer’s instructions and transferred on to Optitran BA-S 83 nitrocellulose membranes (Whatman) with a semi-dry blotter (Biometra) for 1 h at 150 mA. Membranes were saturated for 1 h with 5% skimmed milk in Tris-buffered saline (TBS) containing 0.2% Tween 20. Immunoblots were developed by enhanced chemiluminescence, detected on Kodak Image Station 440 cf and analyzed by the Kodak 1D image software. Tubulin was used as loading control.
Supplementary file pone.0074232.s004.tif: Figure S4 BHK cells expressing WT, WT/T1471A or Phe508delCFTR were exposed to either cycloheximide (CHX, 100 µg/ml) or Brefeldin A (BFA, 200 ng/ml). […] [a] Glozman R, Okiyoneda T, Mulvihill CM, Rini JM, Barriere H, Lukacs GL (2009) N-glycans are direct determinants of CFTR folding and stability in secretory and endocytic membrane traffic. J. Cell Biol. 184, 847–862. (TIF) Click here for additional data file.

CK2 α-catalytic subunit = assay: Phosphorylation of the 42-mer CFTR peptide by isolated CK2 α-catalytic subunit; assay type: biochemical, human; conditions: 0.4 µg peptide, pH 7.5, 50 µM [γ-33P]ATP, 10 min, 37°C, autoradiography, Figure 2A
Protocol: as §1
Recombinant mouse full length CFTR (mCFTR) was cloned, expressed and purified as described in [20]. […]
(§4) Peptides derived from human CFTR C-terminal region were phosphorylated by incubation in a 20-µl volume containing 50 mM Tris/HCl, pH 7.5, 10 mM MgCl2, 100 mM NaCl, and 50 µM [γ-^33P]ATP (specific radioactivity 1,500–2,000 cpm/pmol). […] Samples were separated on Tricine-SDS-PAGE following the Schägger’s protocol in a running buffer composed of 100 mM Tris/HCl, pH 8.3, 100 mM Tricine, 0.1% (w/v) SDS. ^33P incorporation was evaluated by gels autoradiography on PerkinElmer’s Cyclone Plus Storage Phosphor System. Initial rate data were analyzed with the program Prism (GraphPad Software, La Jolla, CA).

PLK2 = assay: Phosphorylation of the 42-mer CFTR peptide by PLK2; assay type: biochemical; conditions: same conditions as with CK2 holoenzyme, Figure 2B
From the text: (§5) CK1 isoforms and PLK 2 and 3 were obtained as described in [21], and [22], respectively.
as §2
as §4, with “cpm/pmol). The reaction was started by the addition of the indicated protein kinases.” for “cpm/pmol).”

PLK3 = assay: Phosphorylation of the 42-mer CFTR peptide by PLK3; assay type: biochemical; conditions: same conditions as with CK2 holoenzyme, Figure 2B
From the text: as §5, §2
as §4, with “cpm/pmol). The reaction was started by the addition of the indicated protein kinases.” for “cpm/pmol).”

CK1 = assay: Phosphorylation of the 42 amino acid CFTR peptide by CK1; assay type: biochemical; conditions: not shown; listed as 42 amino acid peptide
From the text: as §5, §2
as §4, with “cpm/pmol). The reaction was started by the addition of the indicated protein kinases.” for “cpm/pmol).”

GCK/FAM20C = assay: Phosphorylation of the 42 amino acid CFTR peptide by Golgi apparatus casein kinase; assay type: biochemical; conditions: not shown; listed as 42 amino acid peptide
Protocol: as §2, §3

[3] = CHX 100 µg/ml, 2 h, Figures 5 and S4
[4] = listed as 42 amino acid peptide
[5] = listed as 42 amino acid-long recombinant fragment

Work on “KPQIAALKEETEEEVQDTRL [CFTR[1461-1480], Synthetic peptide encompassing the last 20 residues of human CFTR C-terminal domain]” yielded a Kprime [1] of 1430 µM, a Khalf [1] of 1290 µM and a Vmax [1] of 1477 DLUx10^-6. The “phosphorylation by CK2 holoenzyme” value ([1]; listed as shorter synthetic peptide encompassing Thr1471) was “also phosphorylated by CK2 albeit with lower efficiency” and the “phosphorylation by CK2 holoenzyme” value ([1]; listed as synthetic peptide encompassing the last 20 residues of hCFTR) was “can also be phosphorylated by CK2 holoenzyme, although much less efficiently”.
With `C[C@@H]1C[C@@H]([C@H](O)CC2CC(=O)NC(=O)C2)C(=O)[C@@H](C)C1` [CHX, cycloheximide] the “effect on CFTR band B (immature core-glycosylated, ER-resident)” value [2, 3] was “fast and almost complete disappearance of band B; also recorded: attenuation/disappearance of the ER-resident band B of CFTR” and the “effect on CFTR band C (mature fully glycosylated)” value [2, 3] was “much slower; also recorded: the fully mature band C is not affected by CHX treatment”.
For “CFTR[1439-1480]: 42-mer peptide reproducing the C-terminal tail of human CFTR (residues 1439–1480), expressed in Escherichia coli with N-terminal His tag, cleaved by thrombin (QAISPSDRVKLFPHRNSSKCKSKPQIAALKEETEEEVQDTRL; left off: His tag, N-terminal, cleaved)”, the Kprime [1] was 3.13 µM, the Khalf [1] was 1.49 µM and the Vmax [1] was 90.5 DLUx10^-6. For the same compound, the “phosphorylation by CK2 holoenzyme” value [1, 4] was “readily phosphorylated at Thr1471”, the “phosphorylation by CK2 holoenzyme” value [1, 5] was “readily phosphorylated by CK2 holoenzyme” and the “phosphorylation by CK2 holoenzyme” value ([1]; listed as recombinant fragment of human CFTR) was “readily phosphorylated, with favorable kinetics, at Thr1471 by CK2 holoenzyme”. The “phosphorylation by isolated CK2 catalytic α-subunit” value (CK2 α-catalytic subunit; [4]) was “neither by its isolated catalytic subunit”, the “phosphorylation by isolated CK2 catalytic α-subunit” value (CK2 α-catalytic subunit; [5]) was “not by the isolated catalytic α-subunit alone” and the “phosphorylation by PLK2” value (PLK2) was “very low as compared to that obtained with CK2 holoenzyme”. For the same compound, the “phosphorylation by PLK2” value (PLK2; [4]) was “nor by other acidophilic Ser/Thr kinases (CK1, PLK2/3, GCK/FAM20C); also recorded: a weak phosphorylation was observed”, the “phosphorylation by PLK3” value (PLK3) was “very low as compared to that obtained with CK2 holoenzyme” and the “phosphorylation by PLK3” value (PLK3; [4]) was “nor by other acidophilic Ser/Thr kinases (CK1, PLK2/3, GCK/FAM20C); also recorded: a weak phosphorylation was observed”. For the same compound, the “phosphorylation by CK1” value (CK1) was “nor by other acidophilic Ser/Thr kinases (CK1, PLK2/3, GCK/FAM20C); also recorded: unable to phosphorylate the 42 amino acid peptide” and the “phosphorylation by GCK/FAM20C” value (GCK/FAM20C) was “nor by other acidophilic Ser/Thr kinases (CK1, PLK2/3, GCK/FAM20C); also recorded: unable to phosphorylate the 42 amino acid peptide”.
`C[C@H]1CCC/C=C/[C@@H]2C[C@H](O)C[C@H]2[C@H](O)/C=C/C(=O)O1` [Brefeldin A] was tested, and the “effect on CFTR band B (immature core-glycosylated, ER-resident)” value ([2]; Brefeldin A 200 ng/ml, Figure S4) was “opposite effects on the fate of band B; also recorded: band B increases”.
